One test concerns Z-138. The experiment in a line: Long-term proliferation (LTP) assay. Format: cell-based. The settings on record: Homo sapiens. The protocol:
FIG. 4 illustrates a representative sample of a long-term proliferation assay performed in the mantle cell lymphoma cell line Z-138. Assays were performed in technical triplicates, reading cell viability over 14 days. Growth curves (top panel) were calculated in Excel. IC50 (bottom panel) and IC90 (not shown) values were calculated in GraphPad Prism using a non-linear regression analysis, fixing the top and bottom of the curves to 100 and 0%, respectively. The IC50 values in the Table are indicated in microM. [table]

The subject of another test is Z138 cells. Kind of test: Western analysis (sDMA, cleaved Caspase-3, cleaved PARP). Format: cell-based, Human. The settings on record: 1 μM, 1-5 days. The protocol: Z138 cells were seeded at approximately […] in IMDM+10% horse serum media. Cells were treated with 1 μM of compound for 1, 2, 3, 4, or 5 days. Cell pellets were collected by centrifuging at 500×g for 5 minutes, washing once with PBS, and freezing at −80° C. until ready to be processed.
Protein lysates were prepared by adding RIPA buffer (Sigma R0278) containing protease inhibitor (about 5× the volume of the cell pellet, or roughly 250 μL) to each cell pellet and pipetting to resuspend. Samples were sonicated with 10×1 second pulses then centrifuged at maximum speed (13,300 RPM) for 6 minutes. Supernatant (200 μL) was transferred to a fresh Eppendorf tube, and pellets were discarded. Protein concentration was determined using a Pierce BCA Protein Assay kit.
(§1) Protein gel samples were prepared by combining 20 μg of lysate with appropriate volumes of Life Technologies NuPage Sample Reducing Agent, LDS Sample Buffer, and RIPA buffer. Gel samples were heated for 5-10 minutes at 100° C. in a heat block. A 15-well Invitrogen 4-12% Bis-Tris NuPAGE-SDS gel was loaded with a volume of 19 μL per well, and run in MES SDS buffer at 150V for about 1 hour or until maximal separation of bands was achieved.
(§2) Gels were transferred onto nitrocellulose membranes using an Invitrogen iBlot system. […]

Test [1] concerns p53 expression in Z138 cells. The experiment in a line: p53 and p21 expression analysis (Western). Format: cell-based, Human. The settings on record: Z138 mantle cell lymphoma cells. The method, then:
Z138 cells were seeded at approximately 3×10^6 cells/dish in 10 cm tissue culture dishes in a volume of 10 mL IMDM+10% horse serum media. Cells were treated with 1 μM of Formula C for 1, 2, 3, 4, or 5 days. Cell pellets were collected by centrifuging at 500×g for 5 minutes, washing once with PBS, and freezing at −80° C. until ready to be processed.
Protein lysates were prepared by adding RIPA buffer (Sigma R0278) containing protease inhibitor (about 5× the volume of the cell pellet, or roughly 250 μL) to each cell pellet and pipetting to resuspend. Samples were sonicated with 10×1 second pulses then centrifuged at maximum speed (13,300 RPM) for 6 minutes. 200 μL of supernatant was transferred to a fresh Eppendorf tube, and pellets were discarded. Protein concentration was determined using a Pierce BCA Protein Assay kit.
as §1, §2

Like-named read-outs stand apart in the source and are kept apart here.

By IC50 is commonly meant the midpoint of a concentration-inhibition curve. As usually defined, the IC90 is the concentration needed for an effect of 90%. Consider `CC(=O)N1CCC(Nc2cc(C(=O)NC[C@H](O)CN3CCc4ccccc4C3)ccn2)CC1` [Formula B], for which the half-inhibitory concentration (IC50) with Z-138 (264 h, 11-day treatment, N = 1, read-out: Formula B LTP IC50) came to 3 nM; with Z-138 (Table 3, read-out: LTP IC50) it was 2 nM. The IC90 with Z-138 (264 h, 11-day treatment, N = 1, read-out: Formula B LTP IC90) was found to be 20 nM.
Consider `O=C(NC[C@H](O)CN1CCc2ccccc2C1)c1ccnc(NC2CCC2)c1` [Formula C], for which, in the test with Z138 cells, the “cell death pathways (cleaved Caspase-3 and cleaved PARP) by Western” value was “induction of cell death pathways”; the “inhibition of PRMT5 (sDMA, symmetric dimethylarginine) by Western” value was “time-dependent inhibition”. For the same compound, the p53 expression entry in test [1] was “increases”.

For the origin of these results see US10653693B2, “PRMT5 inhibitors and uses thereof” (Epizyme, Inc., priority 2014, dated 2020).
